Patent US20230293530A1, “AGENTS FOR SENSITIZING SOLID TUMORS TO TREATMENT” (Yeda Research and Development Co. Ltd., priority 2020, published 2023)

Legend:
4T1 breast cancer cells [1] = experiment: Nucleotide levels by LC-MS in 4T1 cells with or without mizoribine (or L-Name); assay type: cell-based, murine; conditions: 300 µM mizoribine, 24 h
Method: (§1) B) The purine/pyrimidine ratio is increased upon glucose deprivation in murine breast cancer cells. 4T1 cells were grown in the absence of glucose for 24h (baseline) and 48h and quantified by liquid chromatography-mass spectrometry (LC-MS). Nucleotide levels were measured in µg/ml and corrected for protein concentration. Purine/pyrimidine ratio was calculated by dividing (AMP+GMP) by (UMP+CMP) relative concentrations. C) ASS1 inhibition decreases the purine/pyrimidine ration under glucose deprivation. 4T1 cells were grown in the presence or absence of glucose for 48 h and analysed as in 1B. […] Cells were grown and treated as in 5B. […] 4T1 cells were grown either with or without 300 µM mizoribine for 24 h. Nucleotide levels were measured by LC-MS. […] Each experiment was conducted with biological and technical replicates and repeated at least three times. G) A549 cells were grown for 48 hr in control medium or supplemented with 1.2 µM Methotrexate (Holland-Moran). Nucleotide levels were measured as described below by LC-MS. Purine/pyrimidine ratio was calculated by dividing (AMP+GMP+ATP+GTP) concentration by (UMP+CMP+TMP+UTP+CTP+TTP) concentration before and after methotrexate. All error bars represent SER. *P<0.05, **P<0.01. Each experiment was conducted with biological and technical replicates and repeated at least three times.
A) Purine/pyrimidine ratio is increased upon nutrient deprivation in […] colon cancer cells. MC38 cells were grown in either regular medium or in medium without glucose for 24 h. Nucleotide levels were measured by LC-MS. Purine/pyrimidine ratio was calculated by dividing (AMP+GMP) AUC by (UMP+CMP) AUC. B) 4T1 cells with and without shASS1 were grown in glucose free medium either supplemented or not with 10 mM L-Name for 48 hrs. Nucleotide levels were measured by LC-MS. Purine/pyrimidine ratio was calculated by dividing the sum levels of (AMP+GMP) by the sum levels of (UMP+CMP+TMP). […] MC38 cells were grown either with or without 300 µM mizoribine for 24 h. Nucleotide levels were measured by LC-MS. […] 4T1 (left panel) and MC38 cells (right panel) were grown for 24 h with or without 300 µM mizoribine. Cell viability was measured by crystal violet staining. Each experiment was conducted with biological and technical replicates and repeated at least three times. All error bars represent SER. * P<0.05, ** denotes P<0.01, ***P<0.001.
LC-MS analysis: The LC-MS/MS instrument consisting of an Acquity I-class UPLC system (Waters) and Xevo TQ-S triple quadrupole mass spectrometer (Waters), equipped with an electrospray ion source, and operated in positive ion mode was used for analysis of nucleoside monophosphates. MassLynx and TargetLynx software (version 4.1, Waters) were applied for the acquisition and analysis of data. Chromatographic separation was done on a 100 mm × 2.1 mm internal diameter, 1.8-µm UPLC HSS T3 column equipped with 50 mm × 2.1 mm internal diameter, 1.8-µm UPLC HSS T3 pre-column (both Waters Acquity) with mobile phases A (10 mM ammonium acetate and 5 mM ammonium hydrocarbonate buffer, pH 7.65 adjusted with 10% acetic acid) and B (acetonitrile) at a flow rate of 0.3 mL min-1 and column temperature 25° C. A gradient was used as follows: for 0-3 min the column was held at 0.2% B, then 3-3.5 min a linear increase to 100% B, 3.5-4.0 min held at 100% B, 4.0-4.5 min back to 0.2% B and equilibration at 0.2% B for 2.5 min. […] Nucleotide concentration was calculated using a standard curve of the relevant nucleotide concentration in each sample. […]

4T1 breast cancer cells [2] = experiment: DNA (whole-exome) sequencing analysis of mutational bias; assay type: cell-based, murine; conditions: 4T1 cells, 300 µM mizoribine, 24 h
Method: as §1, with “G) A549 cells were grown for 48 hr in control medium or supplemented with 1.2 µM Methotrexate (Holland-Moran).” left out, “All error bars represent SER. *P<0.05, **P<0.01. Each experiment was conducted with biological and technical replicates and repeated at least three times.” left out
4T1 cells treated as outlined above were followed by lysis and DNA isolation using DNeasy blood and tissue kit (Quiagen). […] Purine to pyrimidine (R>Y) and pyrimidine to purine (Y>R) mutations on the sense strand were counted and pooled per condition to achieve sufficient values for statistical analysis. […]

[3] = corrected for protein concentration

## NC(=O)c1ncn([C@@H]2O[C@H](CO)[C@@H](O)[C@H]2O)c1O [Mizoribine, mizoribine]
4T1 breast cancer cells [1]
  purine/pyrimidine ratio (AMP+GMP)/(UMP+CMP): decreased purine/pyrimidine ratio
4T1 breast cancer cells [1]; [3]
  AMP level, Mizoribine treatment: 483.2 µg/ml/ pt
  CMP level, Mizoribine treatment: 7.3 µg/ml/ pt
  GMP level, Mizoribine treatment: 28.46 µg/ml/ pt
  UMP level, Mizoribine treatment: 38.39 µg/ml/ pt
4T1 breast cancer cells [2]
  mutational bias by DNA sequencing analysis: pyrimidine mutational bias
